Reference: patent US9975900B2, “Substituted imidazo[1,2-α]pyrazines for treating spinal muscular atrophy” (Hoffmann-La Roche Inc., priority 2014, dated 2018)
Where a name gives a salt, the structure may show the parent alone.

Key:
[1] = test system: full length SMN2 minigene mRNA (HEK293H cells stably transfected with the SMN2-A minigene construct); assay: RT-qPCR assay for SMN2 minigene pre-mRNA splicing in cultured cells; format: cell-based; conditions: Homo sapiens, HEK293-H, 24 hours, 7-point concentration curve, concentration giving 1.5-fold FL SMN2mini mRNA vs vehicle, read-out: EC1.5x minigene (EC1.5x concentration for production of full length SMN2 minigene mRNA)
Protocol: The reverse transcription-quantitative PCR-based (RT-qPCR) assay is used to quantify the level of the full length SMN2 minigene (referred to herein by the term “FL SMN2mini”) mRNA containing SMN2 exon 7 in a HEK293H cell line stably transfected with said minigene and treated with a test compound. Materials used and respective sources are listed below in Table 1.
The SMN2-A minigene construct was prepared as described in International Patent Application WO2009/151546A1 page 145 paragraph [00400] to page 147 paragraph [00412] (incl. FIG. 1 and FIG. 3 therein).
HEK293H cells stably transfected with the SMN2-A minigene construct (10,000 cells/well) are seeded in 200 μL of cell culture medium (DMEM plus 10% FBS, with 200 μg/mL hygromycin) in 96-well flat-bottom plates and the plate is immediately swirled to ensure proper dispersal of cells and the formation of an even monolayer of cells. Cells are allowed to attach for 6 hours. Test compounds are serially diluted 3.16-fold in 100% DMSO to generate a 7-point concentration curve. A solution of test compound (1 μL, 200× in DMSO) is added to each cell-containing well and the plate is incubated for 24 hours in a cell culture incubator (37° C., 5% CO2, 100% relative humidity). 2 replicates are prepared for each test compound concentration. The cells are then lysed in the Cells-To-Ct lysis buffer and the lysate is stored at −80° C.
Full length SMN2-A minigene and GAPDH mRNA are quantified using the primers and probes referenced in Table 2. Primer SMN Forward A (SEQ ID NO.1) hybridizes to a nucleotide sequence in exon 7 (nucleotide 22 to nucleotide 40), primer SMN Reverse A (SEQ ID NO.2) hybridizes to a nucleotide sequence in the coding sequence of Firefly luciferase, SMN Probe A (SEQ ID NO.3) hybridizes to a nucleotide sequence in exon 7 (nucleotide 50 to nucleotide 54) and exon 8 (nucleotide 1 to nucleotide 21). The combination of these three oligonucleotides detects only SMN1 or SMN2 minigenes (RT-qPCR) and will not detect endogenous SMN1 or SMN2 genes.
The SMN forward and reverse primers are used at final concentrations of 0.4 μM. The SMN probe is used at a final concentration of 0.15 μM. The GAPDH primers are used at final concentrations of 0.2 μM and the probe at 0.15 μM.
The SMN2-minigene GAPDH mix (15 μL total volume) is prepared by combining 7.5 of 2×RT-PCR buffer, 0.4 μL of 25×RT-PCR enzyme mix, 0.75 μL of 20× GAPDH primer-probe mix, […] of water, 2 μL of 10-fold diluted cell lysate, 0.06 μL of 100 μM SMN forward primer, 0.06 μL of 100 μM SMN reverse primer, and 0.225 μL of 100 μM SMN probe.
PCR is carried out at the following temperatures for the indicated time: Step 1: 48° C. (15 min); Step 2: 95° C. (10 min); Step 3: 95° C. (15 sec); Step 4: 60° C. (1 min); then repeat Steps 3 and 4 for a total of 40 cycles.
Each reaction mixture contains both SMN2-A minigene and GAPDH primers/probe sets (multiplex design), allowing simultaneous measurement of the levels of two transcripts.
The increase in the abundance of the FL SMN2mini mRNA relative to that in cells treated with vehicle control is determined from real-time PCR data using a modified ΔΔCt method (as described in Livak and Schmittgen, Methods, 2001, 25:402-8). The amplification efficiency E is calculated from the slope of the amplification curve for FL SMN2mini and GAPDH individually. The abundance of FL SMN2mini and GAPDH mRNA are then calculated as (1+E)^−Ct, where Ct is the threshold value for each amplicon. The abundance of FL SMN2mini mRNA is normalized to GAPDH mRNA abundance. The normalized FL SMN2mini mRNA abundance from test compound-treated samples is then divided by normalized FL SMN2mini mRNA abundance from vehicle-treated cells to determine the level of FL SMN2mini mRNA relative to vehicle control. […]

[2] = test system: SMN protein in SMA patient fibroblast cells (GM03813); assay: SMN protein assay (HTRF) in cultured cells; format: cell-based; conditions: Homo sapiens, SMA Type 1 patient fibroblasts, 48 hours; for EC (1.5-fold): 7-point concentration curve, concentration giving 1.5 times SMN protein vs vehicle, read-out: EC1.5x SMN protein (EC1.5x concentration for SMN protein expression); for maximal fold induction: fold increase relative to vehicle control, read-out: Max. fold increase of SMN protein
Protocol: The SMN HTRF (homogeneous time resolved fluorescence) assay is used to quantify the level of SMN protein in SMA patient fibroblast cells treated with test compounds. Materials used and respective sources are listed below in Table 4.
Cells are thawed and cultured in DMEM-10% FBS for 72 hours. Cells are trypsinized, counted and re-suspended to a concentration of 25,000 cells/mL in DMEM-10% FBS. The cell suspensions are plated at 5,000 cells per well in a 96 well microtiter plate and incubated for 3 to 5 hours. Test compounds are serially diluted 3.16-fold in 100% DMSO to generate a 7-point concentration curve. 1 μL of test compound solution is transferred to cell-containing wells and cells are incubated for 48 hours in a cell culture incubator (37° C., 5% CO2, 100% relative humidity). Triplicate samples are set up for each test compound concentration. After 48 hours, the supernatant is removed from the wells and 25 μL of the RIPA lysis buffer, containing protease inhibitors, is added to the wells and incubated with shaking at room temperature for 1 hour. 25 μL of the diluent is added and then 35 μL of the resulting lysate is transferred to a 384-well plate, where each well contains 5 μL of the antibody solution (1:100 dilution of anti-SMN d2 and anti-SMN cryptate in SMN reconstitution buffer). The plate is centrifuged for 1 minute to bring the solution to the bottom of the wells, then incubated overnight at room temperature. Fluorescence for each well of the plate at 665 nm and 620 nm is measured on an EnVision multilabel plate reader (Perkin-Elmer).
The normalized fluorescence signal is calculated for each sample, Blank and vehicle control well by dividing the signal at 665 nm by the signal at 620 nm. Normalizing the signal accounts for possible fluorescence quenching due to the matrix effect of the lysate. The ΔF value (a measurement of SMN protein abundance as a percent value) for each sample well is calculated by subtracting the normalized average fluorescence for the Blank control wells from the normalized fluorescence for each sample well, then dividing this difference by the normalized average fluorescence for the Blank control wells and multiplying the resulting value by 100. The ΔF value for each sample well represents the SMN protein abundance from test compound-treated samples. The ΔF value for each sample well is divided by the ΔF value for the vehicle control wells to calculate the fold increase in SMN protein abundance relative to the vehicle control. Table 5 provides EC1.5× concentrations for SMN protein expression that was obtained from the 7-point concentration data generated according to the above procedure for particular compounds of the present invention.
Table 6 provides the maximum fold increase of SMN protein that was obtained from the 7-point concentration data generated according to the above procedure for particular compounds of the present invention

Row | SMILES | EC (1.5-fold) [1] [µM] | EC (1.5-fold) [2] [µM] | maximal fold induction [2]
1 | Cc1cn2cc(NC(=O)c3ccc(N4CCNCC4)cc3)ncc2n1 [Example 2, N-(2-methylimidazo[1,2-a]pyrazin-6-yl)-4-piperazin-1-ylbenzamide hydrochloride] | 1.05 | 2.25 | 1.74
2 | COc1cc(N2CCN[C@H](C)C2)ccc1C(=O)Nc1cn2cc(C)nc2cn1 [Example 38, 2-methoxy-N-(2-methylimidazo[1,2-a]pyrazin-6-yl)-4-[(3R)-3-methylpiperazin-1-yl]benzamide] | 0.0578 | 0.206 | 1.74
3 | COc1cc(N2CCNC(C)(C)C2)ccc1C(=O)Nc1cn2cc(C)nc2cn1 [Example 41, 4-(3,3-dimethylpiperazin-1-yl)-2-methoxy-N-(2-methylimidazo[1,2-a]pyrazin-6-yl)benzamide] | 0.0464 | 0.242 | 2.05
4 | Cc1cn2cc(NC(=O)c3ccc(N4CC[C@H](N5CCCC5)C4)cc3F)nc(C)c2n1 [Example 20, N-(2,8-dimethylimidazo[1,2-a]pyrazin-6-yl)-2-fluoro-4-[(3S)-3-pyrrolidin-1-ylpyrrolidin-1-yl]benzamide] | 0.023 | 0.101 | 1.7
5 | COc1cc(N2C[C@@H](C)N[C@@H](C)C2)ccc1C(=O)Nc1cn2cc(C)nc2cn1 [Example 31, 4-[(3R,5S)-3,5-dimethylpiperazin-1-yl]-2-methoxy-N-(2-methylimidazo[1,2-a]pyrazin-6-yl)benzamide] | 0.0358 | 0.221 | 1.87
6 | Cc1cn2cc(NC(=O)c3ccc(N4CCC(N5CCCC5)CC4)cc3F)nc(C)c2n1 [Example 48, N-(2,8-dimethylimidazo[1,2-a]pyrazin-6-yl)-2-fluoro-4-(4-pyrrolidin-1-ylpiperidin-1-yl)benzamide] | 0.0266 | 0.23 | 1.65
7 | CCc1nc(NC(=O)c2ccc(N3CCN[C@H](C)C3)cc2F)cn2cc(C)nc12 [Example 21, N-(8-ethyl-2-methylimidazo[1,2-a]pyrazin-6-yl)-2-fluoro-4-[(3R)-3-methylpiperazin-1-yl]benzamide hydrochloride] | 0.0204 | 0.162 | 1.8
8 | Cc1cn2cc(NC(=O)c3ccc(N4CCNC(C)(C)C4)cc3F)ncc2n1 [Example 35, 4-(3,3-dimethylpiperazin-1-yl)-2-fluoro-N-(2-methylimidazo[1,2-a]pyrazin-6-yl)benzamide hydrochloride] | 0.0317 | 0.505 | 2.16
9 | CC[C@@H]1CN(c2ccc(C(=O)Nc3cn4cc(C)nc4cn3)c(F)c2)CCN1 [Example 32, 4-[(3R)-3-ethylpiperazin-1-yl]-2-fluoro-N-(2-methylimidazo[1,2-a]pyrazin-6-yl)benzamide hydrochloride] | 0.0268 | 0.126 | 1.81
10 | CC[C@H]1CN(c2ccc(C(=O)Nc3cn4cc(C)nc4cn3)c(F)c2)CCN1 [Example 42, 4-[(3S)-3-ethylpiperazin-1-yl]-2-fluoro-N-(2-methylimidazo[1,2-a]pyrazin-6-yl)benzamide hydrochloride] | 0.0144 | 0.231 | 1.72
11 | CCOc1cc(N2CCN[C@H](C)C2)ccc1C(=O)Nc1cn2cc(C)nc2cn1 [Example 5, 2-ethoxy-N-(2-methylimidazo[1,2-a]pyrazin-6-yl)-4-[(3R)-3-methylpiperazin-1-yl]benzamide] | 0.041 | 0.185 | 1.9
12 | Cc1cn2cc(NC(=O)c3ccc(N4CC[C@H](N5CCCC5)C4)cc3F)ncc2n1 [Example 24, 2-fluoro-N-(2-methylimidazo[1,2-a]pyrazin-6-yl)-4-[(3S)-3-pyrrolidin-1-ylpyrrolidin-1-yl]benzamide] | 0.051 | 0.113 | 1.75
13 | Cc1cn2cc(NC(=O)c3ccc(N4CCNCC4)cc3F)ncc2n1 [Example 1, 2-fluoro-N-(2-methylimidazo[1,2-a]pyrazin-6-yl)-4-piperazin-1-ylbenzamide hydrochloride] | 0.0374 | 0.087 | 1.9
14 | CCOc1cc(N2CCN[C@@H](C)C2)ccc1C(=O)Nc1cn2cc(C)nc2cn1 [Example 4, 2-ethoxy-N-(2-methylimidazo[1,2-a]pyrazin-6-yl)-4-[(3S)-3-methylpiperazin-1-yl]benzamide] | 0.0263 | 0.122 | 1.92
15 | Cc1cn2cc(NC(=O)c3c(F)cc(N4CCNCC4)cc3Cl)ncc2n1 [Example 28, 2-chloro-6-fluoro-N-(2-methylimidazo[1,2-a]pyrazin-6-yl)-4-piperazin-1-ylbenzamide hydrochloride] | 2.03 | 8.76 | 1.65
16 | Cc1cn2cc(NC(=O)c3ccc(N4CCNC(C)C4)c(F)c3F)ncc2n1 (stereo not drawn) [Example 30, 2,3-difluoro-N-(2-methylimidazo[1,2-a]pyrazin-6-yl)-4-(3-methylpiperazin-1-yl)benzamide hydrochloride] | 0.165 | 0.603 | 1.82
